Patent US8710083B2, “Pyridylphenyl compounds for inflammation and immune-related uses” (Synta Pharmaceuticals Corp., priority 2006, dated 2014)
Where a name gives a salt, the structure may show the parent alone.

Test system: IL-2 production
Test: Inhibition of IL-2 production in PHA-activated Jurkat cells (ELISA)
Assay type: cell-based
Conditions: PHA 2.5 μg/mL, IL-2 ELISA
Procedure: Jurkat cells were placed in a 96 well plate (0.5 million cells per well in 1% FBS medium) then a test compound of this invention was added at different concentrations. After 10 minutes, the cells were activated with PHA (final concentration 2.5 μg/mL) and incubated for 20 hours at 37° C. under CO2. The final volume was 200 μL. Following incubation, the cells were centrifuged and the supernatants collected and stored at −70° C. prior to assaying for IL-2 production. A commercial ELISA kit (IL-2 Eli-pair, Diaclone Research, Besancon, France) was used to detect production of IL-2, from which dose response curves were obtained. The IC50 value was calculated as the concentration at which 50% of maximum IL-2 production after stimulation was inhibited versus a non-stimulation control.

SMILES	IC50 (Homo sapiens, Jurkat, 20 h)	IC50 (20 hours)
Cc1ccc(-c2ncco2)cc1-c1ccc(NC(=O)c2c(F)cccc2F)cn1 [Compound 13, 2,6-Difluoro-N-[6-(2-methyl-5-oxazol-2-yl-phenyl)-pyridin-3-yl]-benzamide]	–	14 nM
Cc1cc(NC(=O)c2c(F)cccc2F)ncc1-c1cccc(C(F)(F)F)c1 [Compound 14, 2,6-Difluoro-N-[4-methyl-5-(3-trifluoromethyl-phenyl)-pyridin-2-yl]-benzamide]	16 nM	–
Cc1nc(NC(=O)c2c(F)cccc2F)ccc1-c1cccc(C(F)(F)F)c1 [Compound 15, 2,6-Difluoro-N-[6-methyl-5-(3-trifluoromethyl-phenyl)-pyridin-2-yl]-benzamide]	98 nM	–
Cc1ccc(-c2cnco2)cc1-c1ccc(NC(=O)c2snnc2C)nc1 [Compound 21, 4-methyl-N-(5-(2-methyl-5-(oxazol-5-yl)phenyl)pyridin-2-yl)-1,2,3-thiadiazole-5-carboxamide]	31 nM	–
Cc1ccc(-c2ccno2)cc1-c1ccc(NC(=O)c2snnc2C)nc1 [Compound 68, N-(5-(5-(isoxazol-5-yl)-2-methylphenyl)pyridin-2-yl)-4-methyl-1,2,3-thiadiazole-5-carboxamide]	38 nM	–
Cc1ccc(-c2nnco2)cc1-c1ccc(NC(=O)c2c(F)cccc2F)nc1 [Compound 69, 2,6-difluoro-N-(5-(2-methyl-5-(1,3,4-oxadiazol-2-yl)phenyl)pyridin-2-yl)benzamide]	73 nM	–
O=C(Nc1ccc(-c2cc(-c3nnco3)ccc2Cl)cn1)c1c(F)cccc1F [Compound 71, N-(5-(2-chloro-5-(1,3,4-oxadiazol-2-yl)phenyl)pyridin-2-yl)-2,6-difluorobenzamide]	17 nM	–
O=C(Nc1ccc(-c2cc(-c3nccs3)ccc2Cl)nc1)c1c(F)cccc1F [Compound 72, N-(6-(2-chloro-5-(thiazol-2-yl)phenyl)pyridin-3-yl)-2,6-difluorobenzamide]	17 nM	–
Cc1ccc(-c2nccs2)cc1-c1ccc(NC(=O)c2c(F)cccc2F)cn1 [Compound 74, 2,6-Difluoro-N-(6-(2-methyl-5-(thiazol-2-yl)phenyl)pyridin-3-yl)benzamide]	25 nM	–
Cc1ccc(-c2nnco2)cc1-c1ccc(NC(=O)c2c(F)cccc2F)cn1 [Compound 75, 2,6-Difluoro-N-(6-(2-methyl-5-(1,3,4-oxadiazol-2-yl)phenyl)pyridin-3-yl)benzamide]	98 nM	–
O=C(Nc1ccc(-c2cc(-c3ncco3)ccc2Cl)nc1)c1c(F)cccc1F [Compound 77, N-(6-(2-chloro-5-(oxazol-2-yl)phenyl)pyridin-3-yl)-2,6-difluorobenzamide hydrochloric acid salt]	–	11 nM
Cc1ccc(-c2ncco2)cc1-c1ccc(NC(=O)c2ccc(Cl)cc2F)cn1 [Compound 80, 4-chloro-2-fluoro-N-(6-(2-methyl-5-(oxazol-2-yl)phenyl)pyridin-3-yl)benzamide]	180 nM	–

Continued by falling IC50 (Homo sapiens, Jurkat, 20 h), values first:

IC50 (Homo sapiens, Jurkat, 20 h)	IC50 (20 hours)	SMILES
15 nM	–	Cc1nnsc1C(=O)Nc1ccc(-c2cc(C(F)(F)F)ccc2Cl)cn1 [Compound 16, 4-Methyl-[1,2,3]thiadiazole-5-carboxylic acid [5-(2-chloro-5-trifluoromethyl-phenyl)-pyridin-2-yl]-amide]
12 nM	–	Cc1ccc(-c2ncco2)cc1-c1ccc(NC(=O)c2snnc2C)nc1 [Compound 18, 4-Methyl-[1,2,3]thiadiazole-5-carboxylic acid [5-(2-methyl-5-oxazol-2-yl-phenyl)-pyridin-2-yl]-amide]
12 nM	–	Cc1ccc(-c2ncco2)cc1-c1ccc(NC(=O)c2c(F)cccc2F)cn1 [Compound 20, 2,6-Difluoro-N-[6-(2-methyl-5-oxazol-2-yl-phenyl)-pyridin-3-yl]-benzamide hydrochloride]
10 nM	–	Cc1ccc(-c2cnco2)cc1-c1ccc(NC(=O)c2c(F)cccc2F)cn1 [Compound 78, 2,6-Difluoro-N-(6-(2-methyl-5-(oxazol-5-yl)phenyl)pyridin-3-yl)benzamide]
9 nM	–	Cc1ccc(-c2cnco2)cc1-c1ccc(NC(=O)c2c(F)cccc2F)nc1 [Compound 70, 2,6-difluoro-N-(5-(2-methyl-5-(oxazol-5-yl)phenyl)pyridin-2-yl)benzamide]
9 nM	–	O=C(Nc1ccc(-c2cc(-c3ncco3)ccc2Cl)nc1)c1c(F)cccc1F [Compound 76, N-(6-(2-chloro-5-(oxazol-2-yl)phenyl)pyridin-3-yl)-2,6-difluorobenzamide]
7 nM	–	Cc1nnsc1C(=O)Nc1ccc(-c2cc(-c3ncco3)ccc2Cl)cn1 [Compound 19, 4-Methyl-[1,2,3]thiadiazole-5-carboxylic acid [5-(2-chloro-5-oxazol-2-yl-phenyl)-pyridin-2-yl]-amide]
7 nM	–	COc1ccc(-c2cnco2)cc1-c1ccc(NC(=O)c2snnc2C)nc1 [Compound 67, N-(5-(2-methoxy-5-(oxazol-5-yl)phenyl)pyridin-2-yl)-4-methyl-1,2,3-thiadiazole-5-carboxamide]
6 nM	–	COC(=O)c1ccc(Cl)c(-c2ccc(NC(=O)c3c(F)cccc3F)nc2)c1 [Compound 6, 4-Chloro-3-[6-(2,6-difluoro-benzoylamino)-pyridin-3-yl]-benzoic acid methyl ester]
4 nM	–	COC(=O)c1ccc(C)c(-c2ccc(NC(=O)c3c(F)cccc3F)nc2)c1 [Compound 7, 3-[6-(2,6-Difluoro-benzoylamino)-pyridin-3-yl]-4-methyl-benzoic acid methyl ester]
3 nM	–	O=C(Nc1ccc(-c2cc(-c3ncco3)ccc2Cl)cn1)c1c(F)cccc1F [Compound 8, N-[5-(2-Chloro-5-oxazol-2-yl-phenyl)-pyridin-2-yl]-2,6-difluoro-benzamide]
2 nM	–	O=C(Nc1ccc(-c2cc(-c3nccs3)ccc2Cl)cn1)c1c(F)cccc1F [Compound 10, N-[5-(2-Chloro-5-thiazol-2-yl-phenyl)-pyridin-2-yl]-2,6-difluoro-benzamide]
2 nM	–	Cc1nnsc1C(=O)Nc1ccc(-c2cc(-c3nccs3)ccc2Cl)cn1 [Compound 17, 4-Methyl-[1,2,3]thiadiazole-5-carboxylic acid [5-(2-chloro-5-thiazol-2-yl-phenyl)-pyridin-2-yl]-amide]
